Assay results taken from PMC11714206, “Massively Parallel Screening of Toll/Interleukin‐1 Receptor (TIR)‐Derived Peptides Reveals Multiple Toll‐Like Receptors (TLRs)‐Targeting Immunomodulatory Peptides” (Advanced Science, 2024).

Target: T1, MyD88^TIR (Homo sapiens, UniProt Q99836)
T1 construct: MyD88 (residues 148–296); 6xHis; made in house; host or cells: E. coli BL21 (DE3)
Test: T‐Surf phage library (P8 and P3) selection against MyD88^TIR, four rounds, NGS read counts
Type: binding
Conditions: for P8_MyD88 Rank (after) / P8_MyD88 Rank (before): P8 library; for Population: P8_MyD88 pool: P8 T-Surf phage library, 4th round of selection against MyD88 TIR, share of NGS reads
Experimental: T‐Surf libraries were screened against the immobilized TIR domains of two major human TLR adaptor proteins, MAL^TIR and MyD88^TIR, allowing cross‐species selection of TIR‐binding motifs with 190 946 TIR‐derived peptides in a single binding assay (Scheme 1). Enriched phage pools from the fourth round of selection were analyzed using NGS after barcoding the peptide‐coding regions of the phage pools.
Phage display screening was performed by coating two wells of a 96‐well plate (Maxisorp, Thermo Fisher Scientific) with 100 µL of 5 µg mL^−1 TIR domains overnight; then, the coated wells were blocked with 200 µL of blocking buffer (0.2% BSA in PBS) and set aside for 1 h at 4 °C with gentle shaking. Next, 100 µL of the phage library was added to the wells and incubated for 1 h at room temperature (RT; 20 – 22 °C) with gentle shaking. The plate was washed four times with PBS containing 0.5% Tween‐20; the bound phages were eluted by adding 100 µL of 100 mM HCl to each well. The elute was neutralized with 10 µL of 1.0 M Tris‐HCl (pH 11.0). E. coli TG1 cells were grown to the log phase (A600 = ≈0.6), and 1 mL of the culture was incubated with 100 µL of the eluted phages for 30 min at 37 °C, with shaking at 200 rpm. Next, 1 µL of M13KO7 helper phages was added, followed by incubation for 45 min at 37 °C, with shaking. Subsequently, the cells were transferred to 25 mL of 2× yeast extract tryptone/carbenicillin/kanamycin medium and incubated overnight at 37 °C with shaking at 200 rpm. The amplified phages were precipitated with 20% PEG‐8000/2.5 M NaCl to be used for the next round of selection.
The naïve T‐Surf libraries in P8 and P3 and the enriched phage pools after four rounds were barcoded for NGS as previously described.^[ [59] ^] Briefly, 5 µL of the phage pool was used as a template for 20 cycles of a 50 µL PCR reaction using […] each of forward and reverse barcoded primers and PrimeSTAR Max DNA Polymerase. The PCR products were purified using Expin Gel SV (GeneAll). The NGS samples were quantified using qPCR, following the qPCR Quantification Protocol Guide (KAPA Library Quantification kits for Illumina Sequencing Platform), and qualified using the TapeStation High Sensitivity D1000 ScreenTape (Agilent Technologies). The indexed libraries were further sequenced by Macrogen (Seoul, Republic of Korea) using the NovaSeq platform (Illumina) with 100 bp paired‐end reads. The reads were demultiplexed by barcodes and filtered for an average Phred quality score of at least 30, followed by trimming the flanking consensus sequences using Cutadapt (version 2.3). Peptide sequence populations were analyzed according to the read counts.

[1] = selection against MyD88 TIR, rank by count after grouping
[2] = selection against MyD88 TIR, rank by count before grouping
[3] = P8_MyD88: rank by count after grouping
[4] = P8_MyD88: rank by count before grouping
[5] = selection against MyD88, rank after grouping
[6] = selection against MyD88, rank before grouping
[7] = P8_MyD88: rank by NGS read count after grouping
[8] = P8_MyD88: rank by NGS read count before grouping
[9] = 4R selection against MyD88, rank after grouping
[10] = 4R selection against MyD88, rank before grouping

T1 sequence (Q99836 148-296): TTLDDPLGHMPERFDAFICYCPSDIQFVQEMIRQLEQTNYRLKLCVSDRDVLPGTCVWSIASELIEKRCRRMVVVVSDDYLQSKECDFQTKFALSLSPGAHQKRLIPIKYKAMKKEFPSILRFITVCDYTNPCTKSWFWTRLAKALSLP

DPQDLEWFYERLFSLI
P8_MyD88 Rank (after) [1]: 209 | P8_MyD88 Rank (before) [2]: 1112

DPQDLEWFYERLFSR
Rank (after) [3]: 450 | Rank (before) [4]: 1113

DPQDLEWFYERLGSLF
P8_MyD88 Rank (after) [1]: 247 | P8_MyD88 Rank (before) [2]: 2852

DPQDLEWFYERLLAR
P8_MyD88 Rank (after) [5]: 515 | P8_MyD88 Rank (before) [6]: 2879

DPQDLEWFYERLVILF
Rank (after) [3]: 446 | Rank (before) [4]: 2849

DPQDLEWFYERLVSLF
Population: 0.0112%

DPQDLEWFYERLVSLFL
P8_MyD88 Rank (after) [1]: 244 | P8_MyD88 Rank (before) [2]: 2882

DPQDLEWFYERLVSLI
Population: 0.01%

DPQDLEWFYERLVSLIP
Rank (after) [3]: 453 | Rank (before) [4]: 2884

DPQDLEWFYERLVSLL
Population: 0.0224%

DPQDLEWFYERLVSRF
P8_MyD88 Rank (after) [1]: 266 | P8_MyD88 Rank (before) [2]: 2851

DPQDLEWFYERPVSLF
P8_MyD88 Rank (after) [1]: 259 | P8_MyD88 Rank (before) [2]: 2853

DPQDLEWLYERLVSLF
Rank (after) [3]: 180 | Rank (before) [4]: 1108

DPQDLEWNFERPVSLF
Rank (after) [7]: 972 | Rank (before) [8]: 2856

DPQDLGCFYERLVSLF
P8_MyD88 Rank (after) [9]: 611 | P8_MyD88 Rank (before) [10]: 2721

DPQDLGWFYERLISQILK
P8_MyD88 Rank (after) [9]: 624 | P8_MyD88 Rank (before) [10]: 2726

DPQDLGWFYERLLSLF
Rank (after) [3]: 441 | Rank (before) [4]: 2722

DPQDLGWFYERLVSLF
Population: 0.00617%

DPQDLHGIYERLVILF
P8_MyD88 Rank (after) [9]: 666 | P8_MyD88 Rank (before) [10]: 2903

DPQDLLRFYEHLVSLF
Rank (after) [3]: 472 | Rank (before) [4]: 2901

DPQDLNGFMNVCLAR
P8_MyD88 Rank (after) [5]: 488 | P8_MyD88 Rank (before) [6]: 2947

DPQDLQCSSERLVSLI
P8_MyD88 Rank (after) (selection against MyD88, rank by count after grouping): 691 | P8_MyD88 Rank (before) (selection against MyD88, rank by count before grouping): 2906

DPQDLQSLYEGLVSLV
Rank (after) [3]: 467 | Rank (before) [4]: 2944

DPQDLQWFCERLVSLF
P8_MyD88 Rank (after) [1]: 281 | P8_MyD88 Rank (before) [2]: 2908

DPQDLQWFYECLVSLL
P8_MyD88 Rank (after) [5]: 514 | P8_MyD88 Rank (before) [6]: 2911

DPQDLQWFYERLVSLL
Population: 0.03%

DPQDLQWFYERLVSLMASGI
P8_MyD88 Rank (after) [5]: 494 | P8_MyD88 Rank (before) [6]: 2920

DPQDLQWSYERLVSRI
Rank (after) [7]: 938 | Rank (before) [8]: 2939

DPQDLVWFYERLVSIV
Rank (after) [7]: 986 | Rank (before) [8]: 2713

DPQDLVWFYERLVSLF
Population: 0.00886%

DPQDLVWFYERPVSIF
Rank (after) [7]: 909 | Rank (before) [8]: 2712

DPQDLVWFYESLVSLF
P8_MyD88 Rank (after) [1]: 263 | P8_MyD88 Rank (before) [2]: 2714

DPQDLVWFYKRLFSQM
Rank (after) [7]: 977 | Rank (before) [8]: 2720

DPQDLVWYYERLVSLF
Rank (after) [3]: 410 | Rank (before) [4]: 2717

DPQDMEWFYERLVSLIL
P8_MyD88 Rank (after) [9]: 602 | P8_MyD88 Rank (before) [10]: 2975

DPQDPDRNYERMVSRL
P8_MyD88 Rank (after) [9]: 661 | P8_MyD88 Rank (before) [10]: 2961

DPQDPDWCYERLVSLI
P8_MyD88 Rank (after) [5]: 522 | P8_MyD88 Rank (before) [6]: 2962

DPQDQDRFYERLVSLF
P8_MyD88 Rank (after) [9]: 591 | P8_MyD88 Rank (before) [10]: 2968

DPQDQDWVYERLVSLF
Rank (after) [7]: 936 | Rank (before) [8]: 2966

DPQDQEWFYERLFSHV
Rank (after) [3]: 438 | Rank (before) [4]: 2970

DPQDQEWLYERLFSQM
P8_MyD88 Rank (after) [9]: 619 | P8_MyD88 Rank (before) [10]: 2971

DPQDRDWIYERLVSLF
Rank (after) [3]: 423 | Rank (before) [4]: 2956

DPQDREWCYERLVSLL
P8_MyD88 Rank (after) [5]: 516 | P8_MyD88 Rank (before) [6]: 2958

DPQDREWFYERLVSLF
P8_MyD88 Rank (after) [1]: 277 | P8_MyD88 Rank (before) [2]: 2957

DPQDTDWFYERLVSMF
P8_MyD88 Rank (after) [5]: 499 | P8_MyD88 Rank (before) [6]: 2976

DPQELDGFYERLVSLF
Rank (after) [3]: 401 | Rank (before) [4]: 3015
